Assay results: patent US20220175798A1, “COMPOSITIONS COMPRISING OXYGENATED CHOLESTEROL SULFATE AND AT LEAST ONE OF POLYALKYLENE GLYCOL, CARBOXYMETHYL CELLULOSE AND POLYOXYLGLYCERIDE” (Durect Corporation, priority 2016, published 2022)
“And” between values parts separate entries of the source, which are not always exact repeats. Equal entries are not always repeated.

Assay: Particle size analysis by Malvern Mastersizer 2000 (laser diffraction)
Format: physicochemical
Description: Two lots of 25HC3S sodium salt (Lot #A and Lot #B) were first passed through either 20 mesh or 35 mesh stainless steel sieves for particle size analysis. The particle sizes were further reduced by jet milling and analyzed again. All particle size analyses were determined using a Malvern Mastersizer 2000.
Fluid Energy Model 00 Jet-O-Mizer was used for all jet-milling. Malvern Mastersizer 2000 equipped with a Hydro 2000S dispersion cell was used for particle size analysis.
Approximately 60 mg of API was weighed into a 4 mL screw cap vial and 1 mL water, USP was added to the vial. […] Duplicate samples from each single sample preparation were analyzed.
Particle refractive index was assumed to be 1.53 (not measured by refractometer) and particle absorption index was 0.01. Dispersant (water, USP, presaturated with 25HC3 S) refractive index was 1.33. […] Throughout the measurement, the pump rate was 3000 rpm without sonication. The measurement integration time was 20,000 ms; the numbers of measurements for each sample were 5 with a 20 seconds delay in between two measurements. Analysis model: General purpose

[1] = 20 mesh sieve then Jet milling 1st pass (1st milling sample, feed rate not controlled), sodium salt
[2] = 20 mesh sieve then Jet milling 2nd pass, sodium salt
[3] = 20 mesh sieve then Jet milling 3rd pass, sodium salt
[4] = Press through 20 mesh sieve with a stainless steel spatula, sodium salt
[5] = Press through 35 mesh sieve with a stainless steel spatula
[6] = 20 mesh sieve then Jet milling 1st pass (2nd milling sample, feed rate 1 g/min)

| Compound | d (0.1) [1] | d (0.5) [1] | d (0.9) [1] | d (0.1) [2] | d (0.5) [2] | d (0.9) [2] | d (0.1) [3] | d (0.5) [3] | d (0.9) [3] | d (0.1) [4] | d (0.5) [4] | d (0.9) [4] | also measured |
| --- | --- | --- | --- | --- | --- | --- | --- | --- | --- | --- | --- | --- | --- |
| C[C@H](CCCC(C)(C)O)[C@H]1CC[C@H]2[C@@H]3CC=C4C[C@@H](OS(=O)(=O)[O-])CC[C@]4(C)[C@H]3CC[C@]12C.[Na+] [Lot# A, 25HC3S sodium salt] | 0.705 μm | 2.091 μm | 5.180 μm | 0.384 μm and 0.496 μm | 1.214 μm and 1.320 μm | 4.026 μm and 4.035 μm | 0.137 μm and 0.120 μm | 0.664 μm and 0.580 μm | 2.896 μm and 2.755 μm | 2.268 μm and 2.474 μm | 6.324 μm and 6.905 μm | 18.712 μm and 20.290 μm | d (0.9) (20 mesh sieve then Jet milling 1st pass (1st milling sample, feed rate not controlled), listed as Lot #A, sodium salt): 5.180 μm; d (0.9) (20 mesh sieve then Jet milling 3rd pass, listed as Lot #A, sodium salt): 2.755 μm; d (0.1) [5]: 2.536 μm; d (0.5) [5]: 7.147 μm; d (0.9) [5]: 22.195 μm |
| C[C@H](CCCC(C)(C)O)[C@H]1CC[C@H]2[C@@H]3CC=C4C[C@@H](OS(=O)(=O)[O-])CC[C@]4(C)[C@H]3CC[C@]12C.[Na+] [Lot# B, 25HC3S sodium salt] | 2.148 μm and 1.822 μm | 6.858 μm and 5.126 μm | 29.028 μm and 22.070 μm | 1.431 μm and 1.109 μm | 4.192 μm and 3.920 μm | 15.878 μm and 13.196^4 μm | 0.976 μm and 0.651 μm | 4.251 μm and 2.329 μm | 16.17 μm | 4.132 μm and 4.947 μm | 15.439 μm and 21.437 μm | 43.740 μm and 68.250 μm | d (0.9) (20 mesh sieve then Jet milling 1st pass (1st milling sample, feed rate not controlled), listed as Lot #B, sodium salt): 22.07 μm and 16.17 μm; d (0.1) [6]: 1.253 μm; d (0.5) [6]: 3.172 μm; d (0.9) (20 mesh sieve then Jet milling 1st pass (2nd milling sample, feed rate 1 g/min), listed as Lot #B, sodium salt): 9.09 μm; d (0.9) (20 mesh sieve then Jet milling 1st pass (2nd milling sample, feed rate 1 g/min), sodium salt): 9.090 μm |
